Measurements from PMC12405493, “Selective ubiquitination of drug-like small molecules by the ubiquitin ligase HUWE1” (Nature Communications, 2025).

Assays:
[1] = target: T1, HUWE1^HECT (Homo sapiens, UniProt Q7Z6Z7); test: Single-turnover assay, Ub thioester transfer from E2 to HUWE1^HECT; format: biochemical; settings: HECT^Δ4 variant
T1 construct: HUWE1^HECTΔ4 (residues 3993–4370); made in house
T1 sequence (Q7Z6Z7 3993-4370): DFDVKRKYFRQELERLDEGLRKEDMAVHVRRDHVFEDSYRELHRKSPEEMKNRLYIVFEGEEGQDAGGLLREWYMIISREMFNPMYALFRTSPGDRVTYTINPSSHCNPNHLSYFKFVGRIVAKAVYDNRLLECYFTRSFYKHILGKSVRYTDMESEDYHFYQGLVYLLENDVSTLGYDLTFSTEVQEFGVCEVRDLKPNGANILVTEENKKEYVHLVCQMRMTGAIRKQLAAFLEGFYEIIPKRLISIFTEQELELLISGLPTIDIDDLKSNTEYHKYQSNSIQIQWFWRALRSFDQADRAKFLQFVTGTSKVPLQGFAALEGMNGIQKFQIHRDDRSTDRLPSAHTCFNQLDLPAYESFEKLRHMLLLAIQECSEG
Description: (§1) E3-free multi-turnover ubiquitination reactions to monitor E1 and E2 activities contained 1 μM UBA1, 5 μM UBE2L3, 100 μM Ub, 2 mM ATP and 10 mM MgCl2 in 25 mM HEPES (pH 7.4), and 0.2 mM TCEP. Reactions were incubated at 30 °C for 10 min (or otherwise, as specified) and quenched with 50 mM EDTA, followed by the addition of SDS-loading dye. Single-turnover E2~Ub discharge assays were performed similarly to previous studies. In short, 1 μM UBA1, 5 μM UBE2L3, and 100 μM Ub were pre-incubated with 2 mM ATP and 10 mM MgCl2 in 25 mM HEPES (pH 7.4) at 30 °C for 30 min, diluted 4-fold, and quenched with 50 mM EDTA. Thereafter, 1.2 μM of the UBE2L3~Ub product was incubated with 5 μM HUWE1^HECT at 30 °C for 1 min.

[2] = target: T2, UBA1 (E1) / UBE2L3 (E2) (Homo sapiens, UniProt P22314+P68036); test: E1-driven Ub transfer to UBE2L3 (E3-free reaction); format: biochemical; settings: Supplementary Fig. 1f, g
T2 construct: made in house
Description: as §1

[3] = target: T3, HUWE1-HECT-Ub vinylthioether-linked conjugate (Homo sapiens, UniProt Q7Z6Z7); test: HDX-MS of HUWE1^HECT~Ub proxy with inhibitors; format: binding; settings: 10-fold molar excess of inhibitor
T3 construct: The preparation of the vinylthioether-linked HUWE1^HECT-Ub complex was also previously described; made in house; host or cells: bacteria (components)
Description: Two experiments were performed: 50 μM HUWE1^HECT (1) or HUWE1^HECT-Ub conjugate (2) were incubated with 500 μM of BI8626 or BI8622 for 1 h on ice prior HDX-MS. Individual HDX reactions were generated with a 2-arm autosampler (LEAP Technologies) by mixing 6.5 μL sample with 58.5 μL of HDX buffer (20 mM HEPES pH 8.0, 150 mM NaCl, 5 mM DTT) prepared with 99.9% D2O, incubation at 25 °C for various times, before quenching by mixing 55 μL with an equal volume of 400 mM KH2PO4/H3PO4 (pH 2.2) and 2 M guanidine-HCl (precooled at 1 °C). Non-deuterated samples were generated analogously by 10-fold dilution with H2O-based buffer. […] For each protein state and time-point, three individual HDX reactions were measured.
Peptide identification and HDX analysis was performed with ProteinLynx Global SERVER v.3.0.1 (PLGS; Waters) and DynamX v.3.0 (Waters), as described previously. […] Only peptides with an intensity >10,000 counts, ≤ 30 residues, ≥ 2 products with ≥ 0.05 products/residue, ≤ 25 ppm mass error and retention time tolerance of 0.5 min were analysed. […] The maximal deuterium uptake of a given peptide was calculated by the number of residues minus one for the N-terminal residue and minus the number of prolines. […]

[4] = design: method as in PMID 25253726; settings: cited from earlier work

T2 sequence (P22314 whole entry): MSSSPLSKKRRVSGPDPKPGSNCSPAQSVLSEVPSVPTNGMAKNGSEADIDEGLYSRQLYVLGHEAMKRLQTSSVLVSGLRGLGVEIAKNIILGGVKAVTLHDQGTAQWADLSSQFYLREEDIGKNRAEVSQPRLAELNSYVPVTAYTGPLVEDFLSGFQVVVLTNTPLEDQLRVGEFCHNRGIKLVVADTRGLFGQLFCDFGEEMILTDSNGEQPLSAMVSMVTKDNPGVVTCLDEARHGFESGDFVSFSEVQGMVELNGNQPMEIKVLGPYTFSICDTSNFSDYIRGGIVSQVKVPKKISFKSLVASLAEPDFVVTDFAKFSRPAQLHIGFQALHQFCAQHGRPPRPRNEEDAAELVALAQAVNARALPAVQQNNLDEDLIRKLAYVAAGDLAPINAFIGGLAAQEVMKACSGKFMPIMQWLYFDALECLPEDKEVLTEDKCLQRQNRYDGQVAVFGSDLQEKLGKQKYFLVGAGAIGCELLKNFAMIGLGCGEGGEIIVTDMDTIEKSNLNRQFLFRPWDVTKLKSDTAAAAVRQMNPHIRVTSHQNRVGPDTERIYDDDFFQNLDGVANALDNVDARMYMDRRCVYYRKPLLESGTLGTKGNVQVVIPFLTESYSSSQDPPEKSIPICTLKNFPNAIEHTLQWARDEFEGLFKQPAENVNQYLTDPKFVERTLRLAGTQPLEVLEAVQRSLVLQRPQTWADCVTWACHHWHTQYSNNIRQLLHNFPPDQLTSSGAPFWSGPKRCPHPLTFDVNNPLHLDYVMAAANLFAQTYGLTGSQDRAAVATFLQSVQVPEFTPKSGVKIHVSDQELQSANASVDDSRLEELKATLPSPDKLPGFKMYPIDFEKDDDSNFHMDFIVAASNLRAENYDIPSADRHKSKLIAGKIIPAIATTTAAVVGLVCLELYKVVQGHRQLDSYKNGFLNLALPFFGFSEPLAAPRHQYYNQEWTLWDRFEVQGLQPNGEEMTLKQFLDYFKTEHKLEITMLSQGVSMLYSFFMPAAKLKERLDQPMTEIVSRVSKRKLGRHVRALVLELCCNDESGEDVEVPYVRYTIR
T2 sequence (P68036 whole entry): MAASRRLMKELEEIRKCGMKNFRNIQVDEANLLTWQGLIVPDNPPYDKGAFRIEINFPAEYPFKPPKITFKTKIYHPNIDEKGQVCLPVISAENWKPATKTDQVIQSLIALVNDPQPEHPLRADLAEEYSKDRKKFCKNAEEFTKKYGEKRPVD
T3 sequence (Q7Z6Z7 4038-4374 limits assumed, other chains not shown): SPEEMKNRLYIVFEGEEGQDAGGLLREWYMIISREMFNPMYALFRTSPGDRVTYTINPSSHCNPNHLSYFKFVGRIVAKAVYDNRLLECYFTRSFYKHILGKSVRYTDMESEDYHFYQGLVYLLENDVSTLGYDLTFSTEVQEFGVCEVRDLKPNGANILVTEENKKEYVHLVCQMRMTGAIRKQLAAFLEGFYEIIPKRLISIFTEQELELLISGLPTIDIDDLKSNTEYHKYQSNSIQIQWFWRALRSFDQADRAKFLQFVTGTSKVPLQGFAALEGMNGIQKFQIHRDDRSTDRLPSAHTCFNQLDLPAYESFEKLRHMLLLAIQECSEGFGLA

Row | Structure (SMILES) | Ub transfer from the E2 to HUWE1^HECT [1] | Ub transfer from the E1 to the E2 [2] | Binding to HUWE1^HECT~Ub proxy by HDX-MS [3] | Pharmacokinetic properties [4]
1 | Cc1c(C(=O)Nc2ccc(CN)cc2)ncnc1N1CCC(C#N)(c2ccccc2)CC1 [BI8622] | do not obstruct Ub transfer from the E2 to HUWE1^HECT | nor do they perturb the preceding Ub transfer from the E1 to the E2 | did not provide evidence of binding | do not allow for in vivo applications
2 | NCc1cccc(CNc2ncnc3c(N4CCN(Cc5ccccc5)CC4)ncnc23)c1 [BI8626] | do not obstruct Ub transfer from the E2 to HUWE1^HECT | nor do they perturb the preceding Ub transfer from the E1 to the E2 | did not provide evidence of binding | do not allow for in vivo applications
